ChEMBL document CHEMBL4000252, “Discovery of N-(2-aminoethyl)-N-benzyloxyphenyl benzamides: New potent Trypanosoma brucei inhibitors” (Bioorg Med Chem, 2017)
The source made the active and inactive calls. The calls are words filed in the database; no cut-off is given here.

What was measured:
[1] = tested on: Trypanosoma brucei brucei; experiment: Antiparasitic activity against Trypanosoma brucei brucei BF427 assessed as growth inhibition after 48 hrs by Alamar blue assay; type: functional; conditions: BF427, 48 h
[2] = Cytotoxicity against human CRL8155 cells assessed as growth inhibition after 48 hrs by Alamar blue assay; type: cell-based; conditions: crl8155, 48 h
HepG2 = experiment: Cytotoxicity against human HepG2 cells assessed as growth inhibition after 48 hrs by Alamar blue assay; type: cell-based; conditions: hepg2, 48 h
[3] = tested on: Trypanosoma brucei rhodesiense; experiment: Antiparasitic activity against Trypanosoma brucei rhodesiense STIB900 assessed as growth inhibition after 48 hrs by Alamar blue assay; type: functional; conditions: STIB900, 48 h
Cytochrome P450 3A4 = Cytochrome P450 3A4 (Homo sapiens, UniProt P08684); experiment: Inhibition of human CYP3A4; type: ADME
Liver [4] = experiment: Half life in human liver microsomes at 1.5 uM by LC-MS analysis; type: ADME, microsome
[5] = Ratio of drug level in brain to plasma in mouse at 5 mg/kg, ip after 1 hr by LC-MS analysis; type: ADME, organism-based
[6] = Cmax in mouse at 50 mg/kg, po by LC-MS analysis; type: ADME, organism-based; set-up: dose 50 mg/kg, route oral; conditions: in vivo
[7] = AUC (0 to 8 hrs) in mouse at 50 mg/kg, po by LC-MS analysis; type: ADME, organism-based; set-up: dose 50 mg/kg, time < 8 hr, route oral; conditions: in vivo
[8] = tested on: Trypanosoma brucei rhodesiense; experiment: Antiparasitic activity against Trypanosoma brucei rhodesiense STIB900 infected in Swiss-Webster mouse assessed as cure rate at 50 mg/kg, bid administered via oral gavage from day 2 to 5 post infection measured after 60 days by microscopic method relative to control; type: functional
[9] = tested on: Trypanosoma brucei rhodesiense; experiment: Antiparasitic activity against Trypanosoma brucei rhodesiense STIB900 infected in Swiss-Webster mouse assessed as parasitemia rebound time at 50 mg/kg, bid administered via oral gavage from day 2 to 5 post infection by microscopic method; type: functional
[10] = tested on: Trypanosoma brucei brucei; experiment: Antiparasitic activity against Trypanosoma brucei brucei TREU667 infected in mouse assessed as decrease in parasitemia at 50 mg/kg, bid administered via oral gavage on day 21 to 34 post infection measured on day 34 by microscopic method; type: functional, organism-based
[11] = tested on: Trypanosoma brucei brucei; experiment: Antiparasitic activity against Trypanosoma brucei brucei TREU667 infected in mouse assessed as decrease in parasitemia at 50 mg/kg, bid administered via oral gavage on day 21 to 34 post infection measured on day 35 by microscopic method; type: functional, organism-based
[12] = tested on: Trypanosoma brucei brucei; experiment: Antiparasitic activity against Trypanosoma brucei brucei TREU667 infected in mouse assessed as decrease in parasitemia at 50 mg/kg, bid administered via oral gavage on day 21 to 34 post infection measured on day 36 by microscopic method; type: functional, organism-based
[13] = tested on: Trypanosoma brucei brucei; experiment: Antiparasitic activity against Trypanosoma brucei brucei TREU667 infected in mouse assessed as decrease in parasitemia at 50 mg/kg, bid administered via oral gavage on day 21 to 34 post infection measured on day 40 by microscopic method; type: functional, organism-based
[14] = tested on: Trypanosoma brucei brucei; experiment: Antiparasitic activity against Trypanosoma brucei brucei BF427 assessed as growth inhibition at 128 times EC50 pretreated for 24 hrs followed by compound washout measured after 10 days by light microscopic method; type: functional
[15] = tested on: Trypanosoma brucei brucei; experiment: Antiparasitic activity against Trypanosoma brucei brucei BF427 assessed as growth inhibition at 128 times EC50 pretreated for 48 hrs followed by compound washout measured after 10 days by light microscopic method; type: functional
[16] = tested on: Trypanosoma brucei brucei; experiment: Antiparasitic activity against Trypanosoma brucei brucei BF427 assessed as growth inhibition at 64 times EC50 pretreated for 72 hrs followed by compound washout measured after 10 days by light microscopic method; type: functional
[17] = tested on: Trypanosoma brucei brucei; experiment: Antiparasitic activity against Trypanosoma brucei brucei BF427 assessed as growth inhibition at 64 times EC50 pretreated for 96 hrs followed by compound washout measured after 10 days by light microscopic method; type: functional
Liver [18] = experiment: Half life in mouse liver microsomes at 1.5 uM by LC-MS analysis; type: ADME, microsome
[19] = tested on: Trypanosoma brucei brucei; experiment: Antiparasitic activity against Trypanosoma brucei brucei TREU667 infected in mouse assessed as decrease in parasitemia at 50 mg/kg, bid administered via oral gavage on day 21 to 34 post infection measured on day 41 to 42 by microscopic method; type: functional, organism-based
[20] = tested on: Trypanosoma brucei brucei; experiment: Antiparasitic activity against Trypanosoma brucei brucei BF427 assessed as growth inhibition at 16 times EC50 pretreated for 24 hrs followed by compound washout measured after 10 days by light microscopic method; type: functional
[21] = tested on: Trypanosoma brucei brucei; experiment: Antiparasitic activity against Trypanosoma brucei brucei BF427 assessed as growth inhibition at 8 times EC50 pretreated for 48 hrs followed by compound washout measured after 10 days by light microscopic method; type: functional
[22] = tested on: Trypanosoma brucei brucei; experiment: Antiparasitic activity against Trypanosoma brucei brucei BF427 assessed as growth inhibition at 8 times EC50 pretreated for 72 hrs followed by compound washout measured after 10 days by light microscopic method; type: functional
[23] = tested on: Trypanosoma brucei brucei; experiment: Antiparasitic activity against Trypanosoma brucei brucei BF427 assessed as growth inhibition at 4 times EC50 pretreated for 96 hrs followed by compound washout measured after 10 days by light microscopic method; type: functional

Sequence of Cytochrome P450 3A4 (P08684 whole entry): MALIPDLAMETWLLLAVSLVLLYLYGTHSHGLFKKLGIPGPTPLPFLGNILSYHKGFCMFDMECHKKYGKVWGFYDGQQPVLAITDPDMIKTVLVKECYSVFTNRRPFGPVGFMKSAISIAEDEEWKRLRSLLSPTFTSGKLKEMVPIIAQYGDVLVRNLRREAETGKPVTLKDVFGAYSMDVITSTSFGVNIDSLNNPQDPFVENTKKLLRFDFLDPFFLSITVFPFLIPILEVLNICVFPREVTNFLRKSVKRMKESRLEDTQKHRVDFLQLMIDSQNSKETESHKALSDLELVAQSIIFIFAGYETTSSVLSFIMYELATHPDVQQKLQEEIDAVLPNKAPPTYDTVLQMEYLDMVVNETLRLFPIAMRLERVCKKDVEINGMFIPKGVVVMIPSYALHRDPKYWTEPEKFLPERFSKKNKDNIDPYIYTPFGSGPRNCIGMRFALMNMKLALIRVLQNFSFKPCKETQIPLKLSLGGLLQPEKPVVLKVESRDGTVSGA

CC(C)c1ccc(COc2ccc(N(CCN)C(=O)c3cccnc3C(F)(F)F)cc2)cc1.Cl
EC50 [1]: 0.001 µM
CC50 [2]: 2.03 µM
CC50 (HepG2): 3.83 µM
EC50 [3]: 0.002 µM
IC50 (Cytochrome P450 3A4): 0.144 µM
t1/2 (Liver [4]): > 1 h
BPR [5]: 0.23
Cmax [6]: 1 µM
AUC(0-t) at 8 h [7]: 5.58 µM·h
Activity [8]: 67 - 80%
Time [9]: 31 days
Activity [10]: Active
Activity [11]: Active
Activity [12]: Active
Activity [13]: inactive

Cl.NCCN(C(=O)c1ccccc1C(F)(F)F)c1ccc(OCc2ccc(Cl)cc2)cc1
EC50 [1]: 0.007 µM
CC50 [2]: 3.08 µM
CC50 (HepG2): 5.72 µM
t1/2 (Liver [4]): > 1 h
BPR [5]: 0.88
Cmax [6]: 1.67 µM
AUC(0-t) at 8 h [7]: 10.3 µM·h
Activity [8]: 33%
growth inhibition (GI) [14]: Active
growth inhibition (GI) [15]: Active
growth inhibition (GI) [16]: Active
growth inhibition (GI) [17]: Active

CC(C)c1ccc(COc2ccc(N(CCN)C(=O)c3cccnc3Cl)cc2)cc1.Cl
EC50 [1]: 0.002 µM
CC50 [2]: 4.03 µM
CC50 (HepG2): 10.5 µM
t1/2 (Liver [4]): > 1 h
t1/2 (Liver [18]): > 1 h
BPR [5]: 0.16
Cmax [6]: 1.89 µM
AUC(0-t) at 8 h [7]: 12.3 µM·h
Activity [8]: 67 - 80%
Activity [10]: Active
Activity [11]: Active
Activity [12]: Active
Activity [19]: inactive
growth inhibition (GI) [20]: Active
growth inhibition (GI) [21]: Active
growth inhibition (GI) [22]: Active
growth inhibition (GI) [23]: Active
